Tested on: ES cells or the iPS cells
Assay: Sphere formation and Pax6 immunostaining after 18 days of suspension culture
Type: cell-based, human
Method: On the day before induction of differentiation, in order to separate the ES cells or the iPS cells, which had been cultured in a culture medium to which 10 μM Y-27632 (WAKO) had been added, from the SNL feeder cells, the SNL cells were removed with CTK and the remaining cells were then dissociated using Accumax (ICT). The cells were transferred on a 96-well plate (Lipidure-coat 96-well plate (NOF Corporation)) in an amount of 9×10^3 cells per well. Thereafter, the cells were subjected to a suspension culture in DMEM/F12 (WAKO) comprising 50 μM Y-27632 (WAKO), 10 μM SB43152 (Sigma), 10 ng/ml bFGF (Invitrogen), various types of Wnt inhibitors (DKK1 (R & D, 500 ng/ml), C59 (Cellagen Technology, 2-10 nM), XAV (Stemgent, 500 nM-2 μM) or IWP4 (Stemgent, 500 nM-2.5 μM)), LDN193189 (Stemgent), KSR (Invitrogen), 0.1 mM MEM non-essential amino acid (Invitrogen), 0.1 mM 2-mercaptoethanol (WAKO), and 2 mM L-Gln (Invitrogen) (initiation of differentiation induction, day 0). […] Furthermore, the expression levels of the Foxg1, Lhx2, Emx2 and CoupTF1 genes in the obtained spheres were measured according to a qPCR method (FIG. 4B). […]

Cc1cc(-c2ccc(CC(=O)Nc3ccc(-c4cccnc4)cc3)cc2)ccn1 [C59]
sphere formation in the suspension culture (1 μM C59, 18 days): no spheres were formed | Pax6-positive cells in spheres (immunostaining) (without C59, 2.5 nM and 10 nM C59, 18 days): positive cells were confirmed under all conditions

From patent publication US10626368B2, “Method for inducing cerebral cortex neurons” (KYOTO UNIVERSITY, priority 2015, dated 2020)
